Reference: paper PMC8699473, “An Easily Expandable Multi-Drug LC-MS Assay for the Simultaneous Quantification of 57 Oral Antitumor Drugs in Human Plasma” (Cancers, 2021)

Test: Long-term stability in spiked pooled human plasma

| Compound | Long-term stability, 1 month, -20°C Accuracy [%] (validation standard 2xLLOV) | Long-term stability, 1 month, -80°C Accuracy [%] (validation standard 2xLLOV) | Long-term stability, 2 month, -20°C Accuracy [%] (validation standard 2xLLOV) | Long-term stability, 2 month, -80°C Accuracy [%] (validation standard 2xLLOV) | Long-term stability, 3 month, -20°C Accuracy [%] (validation standard 2xLLOV) | Long-term stability, 3 month, -80°C Accuracy [%] (validation standard 2xLLOV) | Long-term stability, 6 weeks, 4°C, without daylight Accuracy [%] (validation standard 2xLLOV) | Long-term stability, 1 month, -20°C Accuracy [%] (validation standard LLOV) | Long-term stability, 1 month, -80°C Accuracy [%] (validation standard LLOV) | Long-term stability, 2 month, -20°C Accuracy [%] (validation standard LLOV) | Long-term stability, 2 month, -80°C Accuracy [%] (validation standard LLOV) | Long-term stability, 3 month, -20°C Accuracy [%] (validation standard LLOV) | Long-term stability, 3 month, -80°C Accuracy [%] (validation standard LLOV) | Long-term stability, 6 weeks, 4°C, without daylight Accuracy [%] (validation standard LLOV) | Long-term stability, 1 month, -20°C Accuracy [%] (validation standard MOV) | Long-term stability, 1 month, -80°C Accuracy [%] (validation standard MOV) | Long-term stability, 2 month, -20°C Accuracy [%] (validation standard MOV) | Long-term stability, 2 month, -80°C Accuracy [%] (validation standard MOV) | Long-term stability, 3 month, -20°C Accuracy [%] (validation standard MOV) | Long-term stability, 3 month, -80°C Accuracy [%] (validation standard MOV) | other results |
| --- | --- | --- | --- | --- | --- | --- | --- | --- | --- | --- | --- | --- | --- | --- | --- | --- | --- | --- | --- | --- | --- |
| COC(=O)N[C@@H](C)CNc1nccc(-c2cn(C(C)C)nc2-c2cc(Cl)cc(NS(C)(=O)=O)c2F)n1 [Encorafenib] | 100.7 | 93.5 | 111.7 | 104.1 | 97.4 | 95.2 | 95.2 | 84.2 | 88.1 | 103.4 | 93.1 | 96.1 | 94.9 | 81.0 | 99.0 | 97.1 | 102.3 | 104.9 | 101.8 | 100.8 | Long-term stability, 6 weeks, 4°C, without daylight Accuracy [%] (validation standard MOV): 109.2%; Long-term stability, 1 month, -20°C Accuracy [%] (validation standard ULOV): 99.1%; Long-term stability, 1 month, -80°C Accuracy [%] (validation standard ULOV): 95.7%; Long-term stability, 2 month, -20°C Accuracy [%] (validation standard ULOV): 104.0%; Long-term stability, 2 month, -80°C Accuracy [%] (validation standard ULOV): 101.8%; Long-term stability, 3 month, -20°C Accuracy [%] (validation standard ULOV): 100.7%; Long-term stability, 3 month, -80°C Accuracy [%] (validation standard ULOV): 99.0%; Long-term stability, 6 weeks, 4°C, without daylight Accuracy [%] (validation standard ULOV): 101.7% |
| CNC(=O)c1ccc(N2C(=S)N(c3ccc(C#N)c(C(F)(F)F)c3)C(=O)C2(C)C)cc1F [Enzalutamide] | 92.7 | 87.8 | 91.5 | 92.9 | 87.1 | 89.0 | 96.8 | 92.6 | 82.3 | 90.2 | 94.8 | 88.7 | 88.4 | 97.2 | 90.3 | 90.6 | 92.8 | 95.7 | 91.6 | 90.6 | Long-term stability, 6 weeks, 4°C, without daylight Accuracy [%] (validation standard MOV): 105.1%; Long-term stability, 1 month, -20°C Accuracy [%] (validation standard ULOV): 85.8%; Long-term stability, 1 month, -80°C Accuracy [%] (validation standard ULOV): 86.1%; Long-term stability, 2 month, -20°C Accuracy [%] (validation standard ULOV): 90.8%; Long-term stability, 2 month, -80°C Accuracy [%] (validation standard ULOV): 90.3%; Long-term stability, 3 month, -20°C Accuracy [%] (validation standard ULOV): 87.7%; Long-term stability, 3 month, -80°C Accuracy [%] (validation standard ULOV): 87.3%; Long-term stability, 6 weeks, 4°C, without daylight Accuracy [%] (validation standard ULOV): 95.0% |
| C#Cc1cccc(Nc2ncnc3cc(OCCOC)c(OCCOC)cc23)c1 [Erlotinib] | 102.3 | 98.1 | 106.4 | 105.9 | 106.0 | 105.8 | 95.9 | 113.5 | 108.0 | 113.2 | 114.8 | 111.5 | 114.1 | 107.0 | 97.4 | 97.0 | 102.2 | 101.3 | 102.2 | 102.8 | Long-term stability, 6 weeks, 4°C, without daylight Accuracy [%] (validation standard MOV): 111.0%; Long-term stability, 1 month, -20°C Accuracy [%] (validation standard ULOV): 99.6%; Long-term stability, 1 month, -80°C Accuracy [%] (validation standard ULOV): 97.8%; Long-term stability, 2 month, -80°C Accuracy [%] (validation standard ULOV): 104.4%; Long-term stability, 3 month, -20°C Accuracy [%] (validation standard ULOV): 101.8%; Long-term stability, 3 month, -80°C Accuracy [%] (validation standard ULOV): 104.4%; Long-term stability, 6 weeks, 4°C, without daylight Accuracy [%] (validation standard ULOV): 103.7% |
| Cc1ccc(NC(=O)c2ccc(CN3CCN(C)CC3)cc2)cc1Nc1nccc(-c2cccnc2)n1 [Imatinib] | 97.8 | 96.3 | 104.1 | 112.9 | 64.1 | 72.7 | 103.4 | 88.0 | 77.3 | 95.6 | 103.3 | 19.7 | 18.2 | 86.4 | 87.1 | 84.4 | 99.4 | 96.4 | 90.0 | 90.1 | Long-term stability, 6 weeks, 4°C, without daylight Accuracy [%] (validation standard MOV): 95.4%; Long-term stability, 1 month, -20°C Accuracy [%] (validation standard ULOV): 87.9%; Long-term stability, 1 month, -80°C Accuracy [%] (validation standard ULOV): 79.8%; Long-term stability, 2 month, -20°C Accuracy [%] (validation standard ULOV): 91.0%; Long-term stability, 2 month, -80°C Accuracy [%] (validation standard ULOV): 89.1%; Long-term stability, 3 month, -20°C Accuracy [%] (validation standard ULOV): 89.6%; Long-term stability, 3 month, -80°C Accuracy [%] (validation standard ULOV): 89.4%; Long-term stability, 6 weeks, 4°C, without daylight Accuracy [%] (validation standard ULOV): 89.8% |
